For experiment [1], the system named is S. pneumoniae strains. As to the kind of experiment: Streptonigrin disc sensitivity (zone of growth inhibition). It counts as cell-based. How it is done: (§1) For bacterial survival streptonigrin assays, stocks of S. pneumoniae strains grown in Chelex-THY broth and stored at −70° C. were defrosted on ice, pelleted by centrifugation at 20000 g at 4° C. and resuspended in THY to which 2.5 μg ml^−1 of streptonigrin (Sigma) was then added. The reactions were incubated at 37° C., and aliquots of the reaction cultures taken at 40 and 60 minutes after adding streptonigrin were diluted and plated. Cfu at each time point were expressed as a percentage of the cfu prior to adding streptonigrin and the results presented as a ratio of the wild-type strain's results. To assess sensitivity to streptonigrin discs, S. pneumoniae strain stocks cultured in Chelex-THY broth were plated on RPMIm plates with or without 50 μM FeCl3 and 400 μM DIP supplementation at a density of several thousand colonies per plate. Antibiotic discs impregnated with 5 μg streptonigrin were placed onto the plates. After incubation for 20 hours at 37° C. in 5% CO2, the width of the zone of growth inhibition surrounding each disc was measured and confidence intervals for three separate results calculated.

Experiment [2] concerns S. pneumoniae strains. As to the kind of experiment: Streptonigrin bacterial survival assay. The conditions noted are these: 60 minutes incubation with 2.5 μg ml^-1 streptonigrin. It counts as cell-based. The method, then:
as §1

The subject of a further experiment is S. pneumoniae. Put plainly: Sit1D and Sit2A immunisation experiment with IP S. pneumoniae challenge. It is filed as in vivo. The conditions noted are these: BALBc mice, 10 ug protein IP three times, challenged IP with 10,000 S. pneumoniae cells. The method, then:
BALBc were mice given 10 ug of protein (expressed in pQE30 expression vectors in E. coli and purified using the His-tag) via IP, on three occasions separated by 7-10 days, and then challenged 2 weeks after the last immunisation with 10,000 S. pneumoniae cells inoculated IP.
The other proteins were Sit1D, Sit2A, Sit1D combined with Sit2A, Sit1D combined with Pdb, and Sit2A combined with Pbd.

For `COC1=C(N)C(=O)c2nc(-c3nc(C(=O)O)c(C)c(-c4ccc(OC)c(OC)c4O)c3N)ccc2C1=O` [streptonigrin], the “sensitivity to 5 ug streptonigrin discs” value in the experiment on S. pneumoniae strains [1] (Sit1A-/Sit2A- double mutant, in the presence of 400 μM DIP) is on record as “completely resistant”. For the same molecule, the “zone of growth inhibition surrounding a streptonigrin disc, versus wild-type strain” value in the experiment with S. pneumoniae strains [1] (Sit- strains on RPMIm plates) is reported as “smaller”. Besides, the figures for the “fold more cells surviving than wild type cells” value in the experiment on S. pneumoniae strains [2] (Sit1A- strain), in the experiment on S. pneumoniae strains [2] (Sit1A-/Sit2A- strain) and in the experiment on S. pneumoniae strains [2] (Sit2A- strain) were “Approximately 10 fold”, approximately 1000 fold and “Approximately 10 fold”, respectively.

B1: Sit1D: Protein encoded by S. pneumoniae gene Sit1D (SEQ ID NO. 8), putative iron-binding lipoprotein; His-tagged, expressed in E. coli (protein, listed as Salmonella pneumoniae)
chain: MKTSLKLYFTALVASFLLLLGACSTNSSTSQTETSSSAPTEVTIKSSLDEVKLSKVPEKIVTFDLGAADTIRALGFEKNIVGMPTKTVPTYLKDLVGTVKNVGSMKEPDLEAIAALEPDLIIASPRTQKFVDKFKEIAPTVLFQASKDDYWTSTKANIESLASAFGETGTQKAKEELTKLDKSIQEVATKNESSDKKALAILLNEGKMAAFGAKSRFSFLYQTLKFKPTDTKFEDSRHGQEVSFESVKEINPDILFVINRTLAIGGDNSSNDGVLENALIAETPAAKNGKIIQLTPDLWYLSGGGLESTKLMIEDIQKALK
modifications: His tag; CDS (1)..(966)
notes: His-tagged, expressed in E. coli
B1: in the experiment on S. pneumoniae, the “protection against S. pneumoniae challenge (survival, FIG. 7)” value was “as protective as Pdb”.

The record behind these values is US20090280141A1, “Streptococcal Genes” (priority 2000, published 2009).
